1 compound from patent US11771692B2, “N-hydroxyethyl didehydroazapodophyllotoxins as GBP1 inhibitors and methods of overcoming treatment resistance in cancer” (The Board of Trustees of the Leland Stanford Junior …, priority 2018, dated 2023) can be followed below.

Each structure is given as a SMILES string. “Also recorded” adds a separate entry of the source.

Common to all, as to assay type: cell-based
One data set relates to HEK293. Kind of data set: MTT cytotoxicity assay, normal HEK293 cells. The source says:
FIG. 3, panels A-E. FIG. 3, panel A illustrates the effects of SU093 on survival of human normal HEK293 cell line and ovarian cancer cell lines OVCAR8 & SKOV3 cells via MTT assay. FIG. 3, panel B illustrates the effect of SU093 on GBP1 and PIM1 expression in OVCAR8 cells. […] FIG. 3, panel D illustrates quantification of overexpression and knockdown of GBP1 gene in stably transfected OVCAR8 cells. FIG. 3, panel E illustrates cytotoxicity of SU093 as evaluated in GBP1-OV, GBP1-WT and GBP1-KD OVCAR8 via MTT assay.
Furthermore, OVCAR8 cells with overexpressed (OV) and knockdown (KD) of GBP1 gene were created (FIG. 3, panel D) and cell viability experiments were performed on GBP1-WT (wild-type), GBP1-OV and GBP1-KD OVCAR8 cells at different doses of SU093.
Background: Formazan colour is commonly taken as a measure of viable cells.

In another data set the test system is OVCAR8 cells. Kind of data set: Colony formation (clonogenic) assay in OVCAR8 cells.
For a further data set, the system named is GBP1. In words: Confocal microscopy immunostaining of GBP1 and β-tubulin in OVCAR8 cells. The settings on record: OVCAR8, 1 nM SU093 for 6 h.
For data set [1], the system named is SCC-90 cells. Kind of data set: MTT cell viability in SCC-90 cells with GBP1 overexpression and knockdown. The settings on record: SCC-90, SU093 0.5-1000 nM, 48 h. The source says: (§1) The potential for GBP1 inhibition and radiosensitzation in head and neck cancer cells was also investigated.
Data set [2] deals with SCC-90 cells. Kind of data set: Clonogenic radiosensitization assay in SCC-90 cells. The settings on record: SCC-90, SU093 50 nM then radiation.
Excerpt: as §1

Data set [3] deals with SCC-90 cells. In words: Cell cycle analysis of SCC-90 cells, SU093/radiation combination. The settings on record: SCC-90, SU093 50 nM and/or 10 Gy, 24 h.
Excerpt: as §1

For the compound `COc1ccc2c(c1)N(CCO)C1=C(C(=O)OC1)C2c1ccccc1` (stereo not drawn) [SU093], the “cytotoxicity for normal cell line” value in the data set with HEK293 was “no cytotoxicity”. For the same compound, the “colony formation / clonogenic potential” value in the data set on OVCAR8 cells is “dose-dependent inhibition of clonogenic potential; also recorded: dose-dependent inhibition of colony formation”. In addition, the “GBP1 nuclear translocation and tubulin expression” value in the data set with GBP1 was “inhibits the nuclear translocation of GBP1 protein and reduces the tubulin expression; also recorded: blocking its nuclear translocation and reducing tubulin expression”. The “cytotoxic effect in GBP1 OV and KD cells” value with SCC-90 cells [1] is listed as “GBP1 dependent cytotoxic effect”. The “radiation sensitizing effect, clonogenic assay” value in the data set with SCC-90 cells [2] was “radiosensitization effect; also recorded: significant radiation sensitizing effect”. Moreover, the “cell cycle, SU093/radiation combination” value with SCC-90 cells [3] is listed as “G2/M phase arrest followed by cell death; also recorded: increase in G2/M phase arrest, followed by apoptosis”.
